The results in this text go back to paper PMC6879560, “Functional annotation of serine hydrolases in the asexual erythrocytic stage of Plasmodium falciparum” (Scientific Reports, 2019).

For orientation: IC50 means the concentration at which inhibition is half-maximal.

For this assay, the target named is T1, Prodrug activation and resistance esterase (PfPARE) (Plasmodium falciparum, UniProt Q8IBZ2).
T1 construct: gene PF3D7_0709700; native 37 kDa species in saponin-isolated parasite lysate; also confirmed with endogenous C-terminal YFP fusion
T1 sequence (Q8IBZ2 entry or part of it): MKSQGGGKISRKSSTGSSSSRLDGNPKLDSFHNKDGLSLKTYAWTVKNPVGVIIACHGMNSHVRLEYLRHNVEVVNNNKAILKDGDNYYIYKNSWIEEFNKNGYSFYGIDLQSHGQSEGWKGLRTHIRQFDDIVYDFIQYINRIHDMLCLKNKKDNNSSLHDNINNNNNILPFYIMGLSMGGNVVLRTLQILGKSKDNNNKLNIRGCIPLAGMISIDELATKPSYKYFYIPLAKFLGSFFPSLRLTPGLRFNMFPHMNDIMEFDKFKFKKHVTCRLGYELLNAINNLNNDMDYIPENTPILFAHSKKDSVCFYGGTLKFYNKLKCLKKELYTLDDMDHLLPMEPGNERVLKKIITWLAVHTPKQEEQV
Put plainly: gel-based competitive ABPP with TAMRA-FP in parasite lysate; identity confirmed by YFP-tag shift. The format is biochemical.

On to `O=C(OC(C(F)(F)F)C(F)(F)F)N1CCN(Cc2cccc(Oc3ccccc3)c2)CC1` [JW642], for which the IC50 amounted to 2.5 ± 0.6 nM.
